The values below come from patent publication US20220235011A1, “PHTHALAZINONE COMPOUNDS AND USE THEREOF” (ST PHARM CO., LTD., priority 2019, published 2022).

Structures can show the parent of a compound that is named as a salt.

The target of this assay is T1, Sirt6 (Homo sapiens, UniProt Q8N6T7).
T1 construct: purchased CycLex CY-1156V2
The assay is described as follows: Measurement of Sirt6 Activity (CycLex Sirt6 Deacetylase Fluorometric Assay Kit). The format is biochemical. As to conditions: compound at 10 μM, fluorescence relative to the group without compound treatment (positive control group). As for the experimental part:
LC-MS (ESI, m/z)=430.1 (M+H^+) Experimental Example 1: Measurement of Sirt6 Activity Compounds having Sirt6 activity were selected using a CycLex Sirt6 Deacetylase Fluorometric Assay Kit (cat. CY-1156V2) manufactured by CycLex.
When a fluorescent-attached acetylated lysine substrate is treated with Sirt6 enzyme, Sirt6 deacetylates the acetylated lysine of the substrate and lysylendopeptidase cleaves the C-terminal peptide bond connected to the lysine, by which fluorescence is emitted. The activity of a compound is calculated by observing the intensity of fluorescence when the compound is treated along with Sirt6 enzyme. When treating the compound, the compound aids in the activity of Sirt6 enzyme, so as to result in stronger fluorescence. Therefore, by calculating the ratio of the stronger fluorescence relative to the fluorescence emitted from the group without compound treatment (i.e., positive control group), relative activity can be calculated.
Activity evaluation was performed according to the following procedure.
The compound whose activity is to be evaluated was prepared by diluting in phosphate-buffered saline (PBS) to 10 times of the desired concentration (e.g., when measuring Sirt6 assay activity at 10 μM, the compound is prepared at a concentration of 100 μM in PBS). 1 μL of a 1 Ox Sirt6 assay buffer, 0.8 μL of 50× fluoro-substrate peptide, 1 μL of nicotinamide adenine dinucleotide (NAD), 1 μL of a developer and 4.2 μL of H2O were mixed to prepare mixtures equal to the number of samples, and 8 μL was dispensed into each Black 384 well. An additional 1 μL of PBS was added to each of a “no enzyme group” and a positive control group, and 1 μL of the compound diluted in PBS was added to an activity evaluation group. Recombinant Sirt6 was 1:8 diluted in a 1×Sirt6 assay buffer, and 1 μL thereof was added to each of the positive control group and the activity evaluation group. 1 μL of the 1×Sirt6 assay buffer was added to the “no enzyme group.” After reacting at room temperature for one hour, results were measured with a fluorescence spectrometer (excitation: 490±10 nm, emission: 530±10 nm) to confirm the presence or absence of Sirt6 activity and measure the intensity of the activity.

T1 sequence (Q8N6T7 whole entry): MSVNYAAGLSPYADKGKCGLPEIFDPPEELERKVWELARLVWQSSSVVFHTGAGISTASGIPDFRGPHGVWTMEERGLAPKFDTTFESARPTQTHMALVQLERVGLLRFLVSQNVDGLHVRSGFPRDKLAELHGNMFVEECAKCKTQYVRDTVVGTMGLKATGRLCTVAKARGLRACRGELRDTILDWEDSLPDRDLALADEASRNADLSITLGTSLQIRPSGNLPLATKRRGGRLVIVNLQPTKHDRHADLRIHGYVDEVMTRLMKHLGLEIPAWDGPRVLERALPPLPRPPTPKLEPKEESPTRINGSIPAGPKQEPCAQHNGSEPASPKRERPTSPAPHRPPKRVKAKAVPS

Turning to `CC(C)/[N+]([O-])=C/c1cccc(-c2nn(-c3ccccc3F)c(=O)c3ccccc23)c1` [Example 95, (Z)-1-(3-(3-(2-Fluorophenyl)-4-oxo-3,4-dihydrophthalazin-1-yl)phenyl)-N-isopropyl Methanimine Oxide], the “Sirt6 Activity (% activity, 10 μM)” value was 133 % activity.
Same read-out and setting: under `CCS(=O)(=O)Nc1cccc(-c2nn(-c3ccc(F)cc3)c(=O)c3ccccc23)c1` [Example 11, N-(3-(3-(4-Fluorophenyl)-4-oxo-3,4-dihydrophthalazin-1-yl)phenyl)ethanesulfonamide] stands 162 % activity.
With `CCS(=O)(=O)Nc1cccc(-c2cn(-c3ccc(F)cc3)c(=O)c3ccncc23)c1` [Example 149, N-(3-(2-(4-Fluorophenyl)-1-oxo-1,2-dihydropyrido[3,4-d]pyridin-4-yl)phenyl)ethanesulfonamide], the “Sirt6 Activity (% activity, 10 μM)” value worked out at 114.9 % activity.
`CC(C)(/C(N)=N\O)c1cccc(-c2nn(-c3ccc(F)cc3F)c(=O)c3ccccc23)c1` [Example 170, (E)-2-(3-(3-(2,4-Difluorophenyl)-4-oxo-3,4-dihydrophthalazin-1-yl)phenyl)-N′-hydroxy-2-methyl propanimideamide]: the “Sirt6 Activity (% activity, 10 μM)” value turned out to be 262.7 % activity.
Same read-out and setting: under `Cl.N[C@H]1CCCN(c2nn(C3CCCCC3)c(=O)c3ccccc23)C1` [Example 146, (S)-4-(3-Aminopiperidin-1-yl)-2-cyclohexylphthalazin-1(2H)-one-hydrochloride] stands 135.2 % activity; under `CC(C)/[N+]([O-])=C/c1ccc(F)c(-c2nn(-c3ccc(F)cc3)c(=O)c3ccccc23)c1` [Example 56, (Z)-1-(4-Fluoro-3-(3-(4-fluorophenyl)-4-oxo-3,4-dihydrophthalazin-1-yl)phenyl)-N-isopropylmethanimine Oxide], 115 % activity; under `CC(C)/[N+]([O-])=C/c1cccc(-c2nn(-c3cc(F)cc(F)c3)c(=O)c3ccccc23)c1` [Example 31, (Z)-1-(3-(3-(3,5-Difluorophenyl)-4-oxo-3,4-dihydrophthalazin-1-yl)phenyl)-N-isopropyl Methanimine Oxide], 171 % activity.
Turning to `CNC(=O)C(C)(C)c1cccc(-c2nn(C3CCCCC3)c(=O)c3ccccc23)c1` [Example 164, 2-(3-(3-Cyclohexyl-4-oxo-3,4-dihydrophthalazin-1-yl)phenyl)-N,2-dimethylpropanamide], the “Sirt6 Activity (% activity, 10 μM)” value worked out at 285.5 % activity.
Consider `CC(C)/[N+]([O-])=C/c1cccc(-c2nn(-c3ccc(F)c(Cl)c3)c(=O)c3ccccc23)c1` [Example 33, (Z)-1-(3-(3-(3-Chloro-4-fluorophenyl)-4-oxo-3,4-dihydrophthalazin-1-yl)phenyl)-N-isopropyl-methanimine Oxide], for which the “Sirt6 Activity (% activity, 10 μM)” value was 183 % activity.
For the compound `CC(C)(C)/[N+]([O-])=C/c1cc(-c2nn(-c3ccc(F)cc3)c(=O)c3ccccc23)ccc1F` [Example 53, (Z)—N-tert-Butyl-1-(2-fluoro-5-(3-(4-fluorophenyl)-4-oxo-3,4-dihydrophthalazin-1-yl)phenyl) Methanimine Oxide], the “Sirt6 Activity (% activity, 10 μM)” value turned out to be 172 % activity.
Take `CCS(=O)(=O)Nc1cccc(-c2nn(CCc3ccccc3)c(=O)c3ccccc23)c1` [Example 62, N-(3-(4-Oxo-3-phenethyl-3,4-dihydrophthalazin-1-yl)phenyl)ethanesulfonamide]: the “Sirt6 Activity (% activity, 10 μM)” value was found to be 111 % activity.
Same read-out and setting: under `CCCS(=O)(=O)N(C)c1cccc(-c2nn(-c3ccc(F)cc3)c(=O)c3ccccc23)c1` [Example 72, N-(3-(3-(4-Fluorophenyl)-4-oxo-3,4-dihydrophthalazin-1-yl)phenyl)-N-methylpropan-1-sulfonamide] stands 115 % activity; under `CC(C)(C(=O)N1CCOCC1)c1cccc(-c2nn(-c3ccc(F)cc3F)c(=O)c3ccccc23)c1` [Example 179, 2-(2,4-Difluorophenyl)-4-(3-(2-methyl-1-morpholino-1-oxopropan-2-yl)phenyl)phthalazin-1(2H)-one], 221.60 % activity; under `COc1ccc(-c2nn(-c3ccc(F)cc3)c(=O)c3ccccc23)cc1/C=[N+](\[O-])Cc1ccccc1` [Example 50, (Z)—N-Benzyl-1-(5-(3-(4-fluorophenyl)-4-oxo-3,4-dihydrophthalazin-1-yl)-2-methoxyphenyl)methanimine Oxide], 105 % activity.
On to `CC(C)(C(=O)O)c1cccc(-c2nn(-c3ccc(C4CC4)cc3)c(=O)c3ccccc23)c1` [Example 206, 2-(3-(3-(4-Cyclopropylphenyl)-4-oxo-3,4-dihydrophthalazin-1-yl)phenyl)-2-methylpropanoic Acid], for which the “Sirt6 Activity (% activity, 10 μM)” value is 182.70 % activity.
Turning to `CC(C)(C)/[N+]([O-])=C/c1cccc(-c2nn(-c3c(F)cccc3F)c(=O)c3ccccc23)c1` [Example 104, (Z)—N-tert-Butyl-1-(3-(3-(2,6-difluorophenyl)-4-oxo-3,4-dihydrophthalazin-1-yl)phenyl)methanimine Oxide], the “Sirt6 Activity (% activity, 10 μM)” value was 284 % activity.
For `O=C(NOC1CCCCO1)c1cccc(-c2nn(-c3ccc(F)cc3)c(=O)c3ccccc23)c1` (stereo not drawn) [Example 79, 3-(3-(4-Fluorophenyl)-4-oxo-3,4-dihydrophthalazin-1-yl)-N-((tetrahydro-2H-pyran-2-yl)oxy)benzamide], the “Sirt6 Activity (% activity, 10 μM)” value stood at 167 % activity.
As to `CCS(=O)(=O)Nc1cccc(-c2nn(C(C)C)c(=O)c3ccccc23)c1` [Example 132, N-(3-(3-Isopropyl-4-oxo-3,4-dihydrophthalazin-1-yl)phenyl)ethanesulfonamide], the “Sirt6 Activity (% activity, 10 μM)” value was found to be 107.58 % activity.
Regarding `CN[C@H]1CCCCN(c2nn(C3CCCCC3)c(=O)c3ccccc23)C1.Cl` [Example 156, (S)-2-Cyclohexyl-4-(3-(methylamino)azepan-1-yl)phthalazin-1(2H)-one-hydrochloride], the “Sirt6 Activity (% activity, 10 μM)” value worked out at 223.9 % activity.
As for `Cl.N[C@H]1CCCCN(c2nn(-c3ccc(F)cc3F)c(=O)c3ccccc23)C1` [Example 157, (S)-4-(3-Aminoazepan-1-yl)-2-(2,4-difluorophenyl)phthalazin-1(2H)-one-hydrochloride], the “Sirt6 Activity (% activity, 10 μM)” value was found to be 244.1 % activity.
`CS(=O)(=O)Nc1cccc(-c2nn(-c3ccccc3)c(=O)c3ccccc23)c1` [Example 6, N-(3-(4-Oxo-3-phenyl-3,4-dihydrophthalazin-1-yl)phenyl)methanesulfonamide]: the “Sirt6 Activity (% activity, 10 μM)” value came out at 102 % activity.
With `CCS(=O)(=O)N[C@@H]1CCCCN(c2nn(-c3ccc(F)cc3F)c(=O)c3ccccc23)C1` [Example 187, (R)—N-(1-(3-(2,4-Difluorophenyl)-4-oxo-3,4-dihydrophthalazin-1-yl)azepan-3-yl)ethanesulfonamide], the “Sirt6 Activity (% activity, 10 μM)” value is given as 303.80 % activity.
Take `CC(C)(C(=O)O)C1CCCN(c2nn(-c3ccc(F)cc3F)c(=O)c3ccccc23)C1` (stereo not drawn) [Example 210-2, 2-(1-(3-(2,4-Difluorophenyl)-4-oxo-3,4-dihydrophthalazin-1-yl)piperidin-3-yl)-2-methylpropanoic Acid]: the “Sirt6 Activity (% activity, 10 μM)” value (10 µM) was determined as 100.50 % activity.
Take `CC(=O)N[C@@H]1CCCCN(c2nn(-c3ccc(F)cc3F)c(=O)c3ccccc23)C1` [Example 192, (R)—N-(1-(3-(2,4-Difluorophenyl)-4-oxo-3,4-dihydrophthalazin-1-yl)azepan-3-yl)acetamide]: the “Sirt6 Activity (% activity, 10 μM)” value came out at 286.60 % activity.
`CN[C@@H]1CCCCN(c2nn(-c3ccc(F)cc3F)c(=O)c3ccccc23)C1` [Example 189, (R)-2-(2,4-Difluorophenyl)-4-(3-(methylamino)azepan-1-yl)phthalazin-1(2H)-one-hydrochloride]: the “Sirt6 Activity (% activity, 10 μM)” value was 273.70 % activity.
`CC(C)/[N+]([O-])=C/c1cc(-c2nn(-c3ccc(F)cc3)c(=O)c3ccccc23)ccc1F` [Example 52, (Z)-1-(2-Fluoro-5-(3-(4-fluorophenyl)-4-oxo-3,4-dihydrophthalazin-1-yl)phenyl)-N-isopropylmethanimine Oxide]: the “Sirt6 Activity (% activity, 10 μM)” value is recorded as 172 % activity.
Turning to `CC(C)(C(=O)O)c1cccc(-c2nn(-c3ccc(F)cc3F)c(=O)c3ccccc23)c1` [Example 166, 2-(3-(3-(2,4-Difluorophenyl)-4-oxo-3,4-dihydrophthalazin-1-yl)phenyl)-2-methylpropanoic Acid], the “Sirt6 Activity (% activity, 10 μM)” value is on record as 239.2 % activity.
